{"source": "patent US8648169B2", "about": "“Methods of use of Trk receptor modulators” (The Royal Institution for the Advancement of …, priority 2006, dated 2014)", "key": {"[1]": {"tested_on": "retinal ganglion cells (RGCs)", "assay": "RGC loss in ocular hypertension (glaucoma) model, retrogradely labeled surviving RGCs counted in flat mounted retinas;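 for all read-outs here: female Wistar rats aged 8 weeks with three episcleral veins cauterized in the right eye, sham-operated left eye as normal IOP control, at least six retinas averaged per group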", "conditions": "for % RGCs loss at day 49 (vs. Normal) / % RGCs loss at day 42 (vs. Norma): cauterized eye; for RGC loss (% of normal IOP): +daily betaxolol (days 4-35)", "protocol": "Using retrograde tracers, surviving RGCs were labeled at the cell soma and flat retinal spreads were analyzed for RGC numbers (Table 2).\nSurviving RGCs, identified by retrograde labeling, were counted at day 42 post-surgery. In this protocol, the TrkA agonist or controls were not given between days 21 and 42, to evaluate whether any protection could be long-lived. […] Each data point represents the average of at least 6 retinas/experimental group±sd. […] Peptidomimetic D3 (TrkA agonist) or controls were injected intraocularly, each injection at 1 μg in 1 μl. […] Retrogradely labeled surviving RGCs at day 42 post-cauterization were counted in flat mounted retinas (except rows 3 and 4 that were terminated at days 14 and 28). Two investigators counted the RGCs, with one unaware of the groups.\nEpiscleral cauterization was performed under anesthesia in Wistar rats, female, 8 weeks of age. After a conjunctival incision, extra-ocular muscles were isolated and the major limbal draining veins were identified based on location, relative immobility, larger caliber and branching pattern. Cauterization of three episcleral vessels in the right eye were done with a 30″ cautery tip. The left eye in each animal was used as normal IOP control after sham-surgery (conjuctival incisions with no cauterization). […] Planar ophthalmoscopy was used to confirm normal perfusion of the retina at elevated IOP. […] IOP was measured using a Tonopen XL tonometer under light anesthesia (intramuscular injection of ketamine, 4 mg/kg; xylazine, 0.32 mg/kg; and acepromazine, 0.4 mg/kg). Initially IOP was measured daily (three consecutive readings are taken each time) and then weekly until termination.\nA puncture was made in the eye wall with a 30 G needle to place a cannula in the orbit. The tip of the needle was inserted at a 45° angle through the sclera into the vitreous body. This route of administration avoided injury to eye structures."}, "p75 receptor": {"biological_target": "T1, p75 receptor (Homo sapiens, UniProt P08138)", "T1 sequence (P08138 29-427)": "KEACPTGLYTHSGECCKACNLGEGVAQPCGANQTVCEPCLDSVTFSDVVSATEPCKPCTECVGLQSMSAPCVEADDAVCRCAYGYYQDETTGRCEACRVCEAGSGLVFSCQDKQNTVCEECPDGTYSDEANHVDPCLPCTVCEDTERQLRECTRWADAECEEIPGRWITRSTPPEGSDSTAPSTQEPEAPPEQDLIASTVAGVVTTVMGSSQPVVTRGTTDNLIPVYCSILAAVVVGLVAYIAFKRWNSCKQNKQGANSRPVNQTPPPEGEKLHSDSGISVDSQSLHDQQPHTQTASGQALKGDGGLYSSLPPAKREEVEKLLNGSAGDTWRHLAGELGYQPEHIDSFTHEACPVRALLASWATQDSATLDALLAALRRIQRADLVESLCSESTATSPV", "conditions": "cited from earlier work"}, "CNS": {"tested_on": "CNS", "conditions": "cited from earlier work"}, "axotomized RGCs [2]": {"tested_on": "axotomized RGCs", "conditions": "other studies; cited from earlier work"}, "axotomized RGCs [3]": {"tested_on": "axotomized RGCs", "assay": "RGC survival in optic nerve axotomy", "assay_type": "in vivo", "excerpt": "It is important to contrast the results in this glaucoma model with those published in optic nerve axotomy (where the optic nerve is sectioned or crushed and RGC axons are damaged). The two are very different models of RGC damage, where glaucoma is chronic and progressive and is an intraocular disease while axotomy is acute and is an extraocular disease. Thus, in optic nerve axotomy NTFs have been applied successfully. The survival of an axotomized optic nerve was promoted by NGF, BDNF, NT-4, CNTF, as well as bFGF, and GDNF."}, "TrkA": {"biological_target": "TrkA (Homo sapiens, UniProt P04629)", "sequence (P04629 33-796, species assumed)": "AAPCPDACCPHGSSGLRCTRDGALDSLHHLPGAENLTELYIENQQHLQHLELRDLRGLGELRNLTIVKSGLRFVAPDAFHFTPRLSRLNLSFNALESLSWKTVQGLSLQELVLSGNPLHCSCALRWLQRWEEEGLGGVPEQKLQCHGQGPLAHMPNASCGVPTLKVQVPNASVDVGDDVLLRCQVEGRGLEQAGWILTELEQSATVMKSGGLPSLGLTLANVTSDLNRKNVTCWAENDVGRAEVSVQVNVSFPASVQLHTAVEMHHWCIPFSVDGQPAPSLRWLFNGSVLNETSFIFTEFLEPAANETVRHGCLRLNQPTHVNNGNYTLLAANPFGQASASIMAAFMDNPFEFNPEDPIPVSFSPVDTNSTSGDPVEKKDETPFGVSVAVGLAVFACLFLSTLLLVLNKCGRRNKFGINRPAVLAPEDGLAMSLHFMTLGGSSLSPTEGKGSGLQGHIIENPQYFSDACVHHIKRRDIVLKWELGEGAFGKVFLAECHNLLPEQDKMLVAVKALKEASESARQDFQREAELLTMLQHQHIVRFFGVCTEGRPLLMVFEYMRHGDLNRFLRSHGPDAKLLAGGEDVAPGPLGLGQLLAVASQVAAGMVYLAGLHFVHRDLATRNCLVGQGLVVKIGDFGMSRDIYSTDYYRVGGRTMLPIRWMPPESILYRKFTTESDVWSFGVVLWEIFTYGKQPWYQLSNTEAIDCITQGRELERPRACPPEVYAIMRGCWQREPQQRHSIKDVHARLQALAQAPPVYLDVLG", "conditions": "irrespective of whether the p75 receptor is expressed; cited from earlier work"}, "[4]": {"tested_on": "intraocular pressure (IOP) of rat eyes", "excerpt": "High IOP was induced in rat eyes, by reducing aqueous humor outflow through episcleral vein cauterization, while the contralateral eyes were sham-operated and were used as controls (FIG. 2)."}, "[5]": {"conditions": "daily betaxolol days 14-49 (~17 days of high IOP), intraocular injections at days 14 & 21"}, "[6]": {"conditions": "no betaxolol, 49 days of high IOP, intraocular injections at days 14 & 21"}, "[7]": {"conditions": "daily betaxolol days 14 to 42 (~17 days of high IOP), intraocular injections 1 μg at days 14 & 21"}, "[8]": {"conditions": "no betaxolol, 42 days of high IOP, intraocular injections 1 μg at days 14 & 21"}}, "note": "Values joined by “and” are separate entries in the source; they are usually repeats but may differ in a detail not shown here. Equal values may be shown once. “Also recorded” adds a separate entry of the source. No end group written: not given here."}
{"compound": "YCATDIKGKECY (also: cyclic) [C(28-35) peptide, cyclic peptide analog of NGF β-turn 28-35, p75 receptor antagonist]", "values": [{"measurement": "% RGCs loss at day 49 (vs. Normal)", "setting": "[1]; [5]", "result": "29 ± 4", "unit": "%"}, {"measurement": "% RGCs loss at day 49 (vs. Normal)", "setting": "[1]; [6]", "result": "32 ± 11", "unit": "%"}, {"measurement": "effect on RGC survival / apoptosis", "setting": "[1]; rat, in vivo", "result": "did not enhance RGC survival; also recorded: did not prevent or reduce RGC death"}, {"measurement": "effect on p75-NGF interactions", "setting": "p75 receptor", "result": "antagonist"}, {"measurement": "in vivo stability and efficacy in the CNS", "setting": "CNS; previous in vivo studies", "result": "in vivo stability and efficacy"}, {"measurement": "protection of RGCs in vivo in optic nerve axotomy", "setting": "axotomized RGCs [2]", "result": "short-term protection"}]}
{"compound": "NCCCC[C@@H]1NC(=O)C(CCC(=O)O)NC(=O)c2cc([N+](=O)[O-])ccc2OCCC(C(=O)NCC(=O)O)NC1=O", "note": "(stereo partly drawn) [D3]", "values": [{"measurement": "% RGCs loss at day 49 (vs. Normal)", "setting": "[1]; [5]", "result": "18 ± 6", "unit": "%"}, {"measurement": "% RGCs loss at day 42 (vs. Norma)", "setting": "[1]; [7]", "result": "11% and 11 ± 4%"}, {"measurement": "% RGCs loss at day 42 (vs. Norma)", "setting": "[1]; [8]", "result": "29% and 29 ± 3%"}, {"measurement": "% RGCs loss at day 49 (vs. Normal)", "setting": "[1]; [6]", "result": "26 ± 6", "unit": "%"}, {"measurement": "protection of RGCs, formula (testloss−day14loss)/(day42loss−day14loss)*100", "setting": "[1]; day 42, intraocular injections at days 14 and 21, no betaxolol", "result": "~25", "unit": "%"}, {"measurement": "protection of RGCs", "setting": "[1]; day 42, intraocular injections at days 14 and 21 in combination with daily betaxolol", "result": "> 90", "unit": "%"}, {"measurement": "effect on RGC survival / apoptosis", "setting": "[1]; day 49 glaucoma, intraocular injections at days 14 and 21, alone or with betaxolol", "result": "markedly reduced RGC apoptosis"}, {"measurement": "binding to p75", "setting": "p75 receptor", "result": "does not bind"}, {"measurement": "effect on cholinergic neurons in the CNS", "setting": "CNS; evaluated previously, spatial memory tests", "result": "protect the number, phenotype, and function of cholinergic neurons"}, {"measurement": "survival of axotomized RGCs", "setting": "axotomized RGCs [3]", "result": "strong survival-promoting effects"}, {"measurement": "activity at TrkA", "setting": "TrkA", "result": "selective partial agonist"}]}
{"compound": "NGF: Nerve Growth Factor, neurotrophin that binds TrkA and p75", "values": [{"measurement": "% RGCs loss at day 42 (vs. Norma)", "setting": "[1]; [7]", "result": "19 ± 4", "unit": "%"}, {"measurement": "% RGCs loss at day 42 (vs. Norma)", "setting": "[1]; [8]", "result": "42 ± 5", "unit": "%"}, {"measurement": "protection of RGCs from death", "setting": "[1]; day 42 glaucoma, intraocular injections, with or without betaxolol", "result": "did not protect"}]}
{"compound": "CC(C)NCC(O)COc1ccc(CCOCC2CC2)cc1", "note": "(stereo not drawn) [Betaxolol, betaxolol, reference compound]", "values": [{"measurement": "% RGCs loss at day 49 (vs. Normal)", "setting": "[1]; daily betaxolol days 14-49 alone, no intraocular injection", "result": "27 ± 5", "unit": "%"}, {"measurement": "% RGCs loss at day 49 (vs. Normal)", "setting": "[1]; daily betaxolol days 14-49 alone, no intraocular injection, listed as betaxolol", "result": 27, "unit": "%"}, {"measurement": "% RGCs loss at day 42 (vs. Norma)", "setting": "[1]; daily betaxolol days 14 to 42 alone, no intraocular injection", "result": "21 ± 2", "unit": "%"}, {"measurement": "% RGCs loss at day 42 (vs. Norma)", "setting": "[1]; daily betaxolol days 14 to 42 alone, no intraocular injection, listed as betaxolol", "result": 21, "unit": "%"}, {"measurement": "RGC loss (% of normal IOP)", "setting": "[1]; day 0 post-cautery", "result": 0, "unit": "%"}, {"measurement": "RGC loss (% of normal IOP)", "setting": "[1]; day 7 post-cautery", "result": "3 ± 3", "unit": "%"}, {"measurement": "RGC loss (% of normal IOP)", "setting": "[1]; day 14 post-cautery", "result": "4 ± 3", "unit": "%"}, {"measurement": "RGC loss (% of normal IOP)", "setting": "[1]; day 21 post-cautery", "result": "7 ± 3", "unit": "%"}, {"measurement": "RGC loss (% of normal IOP)", "setting": "[1]; day 28 post-cautery", "result": "10 ± 4", "unit": "%"}, {"measurement": "RGC loss (% of normal IOP)", "setting": "[1]; day 35 post-cautery", "result": "14 ± 2", "unit": "%"}, {"measurement": "RGC loss (% of normal IOP)", "setting": "[1]; day 42 post-cautery", "result": "20 ± 5", "unit": "%"}, {"measurement": "IOP by day 7", "setting": "[4]; cauterized rats receiving daily topical betaxolol", "result": "normal IOPs"}, {"measurement": "effect on normal IOP of non-cauterized eyes", "setting": "[4]; daily topical betaxolol, normal eyes", "result": "no significant effect"}]}
